Laboratory results taken from patent publication US6645513B2, “Treatment of skin with adenosine or adenosine analog” (University of Massachusetts, priority 1998, dated 2003).
Where “and” joins values, the source holds several entries; their conditions need not be identical. Equal entries are not always repeated. Marks after values point to notes of the source that are not given here.

What was measured:
Format in all cases: cell-based
human skin fibroblasts [1] = experiment: Determination of cell size by forward light scatter (FACS); conditions: for % increase (cell size) / Relative Size (FLS): adenosine 10^-4 M, 18 h; for increase of cell size: 10^-4 M
Procedure: Human fibroblasts in MEM 10% FBS were seeded into 25 cm^2 culture flasks at a density of 1×10^4 cells/cm^2. When the cells had grown to approximately 80% confluence the culture medium was removed and the cells were incubated in serum-free MEM for 24 hours. Adenosine or vehicle (MEM) was added for 18 hours and cells were then washed twice with cold (4° C.) HBSS. Cells were removed with 0.25% trypsin in calcium-and magnesium-free MEM and diluted in cold (4° C.) HBSS for measurement of relative cell size with a fluorescence-activated cell sorter (FACS; Becton Dickinson Vantage). Cell size was determined by forward light scatter on a minimum of 1×10^4 cells per experiment. The effect of adenosine on cell size was determined on human skin fibroblasts from young and aged donors by measuring forward light scatter in a FACS analyzer. Cultures made quiescent by serum removal were exposed to adenosine for 18 hours, removed by trypsinization, and diluted in 4° C. HBSS. A minimum of 1×10^4 cells were measured for each experiment. Values are mean ±SEM for relative cell size determined by forward light scatter (FLS) in a fluorescence-activated cell sorter, and n=number of cells measured.

human skin fibroblasts [2] = experiment: [3H]phenylalanine incorporation (index of protein synthesis) in human skin fibroblasts; conditions: 10^-4 M, 48 h
Procedure: FIGS. 2A and 2B are histograms showing concentration responses of adenosine-stimulated protein synthesis in human skin fibroblasts from a young (FIG. 2A) and aged (FIG. 2B) donor. Cells were grown to 75% confluence. Medium was then replaced with serum-free medium with or without adenosine. After 48 hours, [^3H]phenylalanine incorporation was determined as described. Results are expressed as %[^3H]phenylalanine incorporation compared to control cultures without adenosine and are means ±SEM for 6-25 experiments. […] Incorporation of [^3H]phenylalanine was measured as an index of protein synthesis. Human skin fibroblasts were seeded into 24-well culture plates in MEM containing 10% FBS. When cells had grown to approximately 75% confluence the culture medium was replaced with serum-free MEM with or without adenosine. After 48 hours, 2 μCi/ml [^3H]phenylalanine was added to the cultures. Unlabeled phenylalanine (0.36 mM) was also added to equalize concentrations of intracellular and extracellular phenylalanine. […] The radioactivity of this fraction was determined by standard liquid scintillation spectrometric techniques. Incorporation of [^3H] phenylalanine was expressed as cpm of ^3H per culture well and data in each experiment were derived from six identically treated wells.

human skin fibroblasts [3] = experiment: [3H]thymidine incorporation (index of DNA synthesis) in human skin fibroblasts
Procedure: (§1) Human skin fibroblasts and human lung fibroblasts were supplied by the N.I.A. Aging Culture Repository Center (Camden, N.J.). For skin fibroblasts, primary cultures had been initiated from explants obtained from a 3 mm punch biopsy of the mesial aspect of the upper left arm. Human lung fibroblasts (IMR-90) were established from a […] normal […] fetus.
Cells were grown in Eagle's minimal essential medium (MEM) supplemented with 10% fetal bovine serum (FBS), 100 U/ml penicillin and […] streptomycin in a 37° C., 5% CO2/95% air environment. After reaching confluence, cells were subcultivated with 0.25% trypsin in MEM with no added Ca^2+ or Mg^2+.
As an index of DNA synthesis incorporation of [^3H]thymidine was measured as described in Ethier et al., Am. J. Physiol. 272:H1470-79 (1997). Confluent monolayers of human skin fibroblasts in MEM plus 10% FBS were seeded into 16 mm diameter culture wells (24-well plates) at a density of 1×10^4 cells/cm^2. Cells were grown at 37° C. under standard culture conditions (5% CO2-95% air) until they were approximately 75% confluent. Medium was then removed and the cells were made “serum-free” by incubation in MEM with no FBS for 24 hours. Adenosine or vehicle (MEM) was added for an additional 18 hours. This medium was then replaced with fresh MEM, and the cells were pulsed with […] [^3H] thymidine (6.7 Ci/mmol). After a 2 hour incubation period, the medium was discarded and the cells were rinsed twice with cold (4° C.) Hank's balanced salt solution (HBSS) and incubated for 5 minutes with 0.5 ml cold 10% (w/v) trichloroacetic acid (TCA). The wells were then rinsed with 8% TCA and the TCA-insoluble material was solubilized with 0.5 ml of a solution of 0.2M NaOH and 0.2% sodium […] sulfate (SDS). The radioactivity of this fraction was determined by standard liquid scintillation spectrometric techniques.
Incorporation of [^3H] thymidine was expressed as counts per minute (cpm) of ^3H per culture. Data in each experiment was derived from 4 identically treated wells.

[4] = test system: human lung fibroblasts (IMR-90); experiment: [3H]thymidine incorporation in human lung fibroblasts (IMR-90); conditions: IMR-90 lung fibroblasts
Procedure: FIGS. 1A and 1B are histograms showing the effect of adenosine on [^3H]thymidine incorporation in cultures of normal human skin (FIG. 1A) and lung fibroblasts (FIG. 1B). After incubation in serum-free medium for 24 hours, cells were exposed to 10^−4 M adenosine for 18 hours. Medium was replaced with serum-free medium without adenosine, and [^3H]thymidine was added. Results are expressed as percent [^3H]thymidine incorporation compared to control cultures without adenosine and are means ±SEM for 4-5 experiments.
as §1
Cells were grown in Eagle's minimal essential medium (MEM) supplemented with 10% fetal bovine serum (FBS), 100 U/ml penicillin and […] streptomycin in a 37° C., 5% CO2/95% air environment. […]
As an index of DNA synthesis incorporation of [^3H]thymidine was measured as described in Ethier et al., Am. […] The radioactivity of this fraction was determined by standard liquid scintillation spectrometric techniques.
Incorporation of [^3H] thymidine was expressed as counts per minute (cpm) of ^3H per culture. […]

With `Nc1ncnc2c1ncn2[C@@H]1O[C@H](CO)[C@@H](O)[C@H]1O` [adenosine] the “% increase (cell size)” value (human skin fibroblasts [1]; aged donor, experiment 1) was 2.7* %, the “Relative Size (FLS)” value (human skin fibroblasts [1]; aged donor, experiment 1) was 342 ± 0.75 and the “% increase (cell size)” value (human skin fibroblasts [1]; aged donor, experiment 2) was 4.3* %. For the same molecule, the “Relative Size (FLS)” value (human skin fibroblasts [1]; aged donor, experiment 2) was 337 ± 0.96, the “% increase (cell size)” value (human skin fibroblasts [1]; aged donor, experiment 3) was 4.9* % and the “Relative Size (FLS)” value (human skin fibroblasts [1]; aged donor, experiment 3) was 321 ± 0.81. The “increase of cell size” value (human skin fibroblasts [1]; skin fibroblasts from person (AG073060A), two of three experiments) was 1.8% and 2.2%, the “increase of cell size” value (human skin fibroblasts [1]; skin fibroblasts from person three (AG11730), 3 of 3 experiments) was 2.7-4.9% and the “% increase (cell size)” value (human skin fibroblasts [1]; young donor, experiment 1) was 0.4%. For the same molecule, the “Relative Size (FLS)” value (human skin fibroblasts [1]; young donor, experiment 1) was 526 ± 0.55, the “% increase (cell size)” value (human skin fibroblasts [1]; young donor, experiment 2) was 2.2* % and the “Relative Size (FLS)” value (human skin fibroblasts [1]; young donor, experiment 2) was 326 ± 1.16. For the same molecule, the “% increase (cell size)” value (human skin fibroblasts [1]; young donor, experiment 3) was 1.8* %, the “Relative Size (FLS)” value (human skin fibroblasts [1]; young donor, experiment 3) was 348 ± 0.95 and the “increase of protein synthesis ([3H]phenylalanine incorporation)” value (human skin fibroblasts [2]; skin fibroblasts from person (AG073060A), n=25) was 13±4%. For the same molecule, the “increase of protein synthesis ([3H]phenylalanine incorporation)” value (human skin fibroblasts [2]; skin fibroblasts from person three (AG11730), n=17) was 13±6%, the “increase of [3H]thymidine incorporation” value (human skin fibroblasts [3]; human fibroblasts AG607720B made quiescent by serum removal, 10^-4 M adenosine, five studies (FIG. 1A)) was 43±9% and the “peak stimulation of [3H]thymidine incorporation” value (human skin fibroblasts [3]; skin fibroblasts from person (AG07306A), 10^-4 M, n=6) was 93±20%. For the same molecule, the “increase of [3H]thymidine incorporation” value (human skin fibroblasts [3]; skin fibroblasts from person one, 10^-4 M) was 53±31%, the “increase of [3H]thymidine incorporation” value (human skin fibroblasts [3]; skin fibroblasts from person three, 10^-4 M) was 54±22% and the “effect on DNA synthesis ([3H]thymidine incorporation)” value (human skin fibroblasts [3]; skin fibroblasts from person two, 10^-4 M) was “no effect”. The “effect on [3H]thymidine incorporation” value ([4]; adenosine 10^-4 M (FIG. 1B)) was “no effect” and the “stimulation of [3H]thymidine incorporation” value ([4]; adenosine 10^-7 M to 10^-3 M (data not shown)) was “failed to stimulate”.
